In PubChem BioAssay AID330 (DTP/NCI, 2004):
Where “and” joins values, the source holds several entries; their conditions need not be identical. Equal values may be shown once. Toxic doses and inconclusive results are not listed.

Test system: P388 leukemia ip, CD2F1 mice, survival T/C
Test: NCI In Vivo Anticancer Drug Screen. Data for tumor model P388 Leukemia (intraperitoneal) in CD2F1 (CDF1) mice
Settings: endpoint: median survival time, higher = longer survival
Outline: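 Mice carrying the transplanted tumor received test compound or vehicle. Survival was recorded in each group, and the value is the treated-group measurement divided by that of the vehicle-treated control group.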

[1] = dose: 12.5 mg/kg/injection, schedule: Q01DX009 (ip), vehicle: other
[2] = dose: 25.0 mg/kg/injection, schedule: Q01DX009 (ip), vehicle: other
[3] = dose: 50.0 mg/kg/injection, schedule: Q01DX009 (ip), vehicle: Klucel (hydroxypropylcellulose) (HPC)
[4] = dose: 100.0 mg/kg/injection, schedule: Q01DX009 (ip), vehicle: Klucel (hydroxypropylcellulose) (HPC)
[5] = dose: 200.0 mg/kg/injection, schedule: Q01DX009 (ip), vehicle: Klucel (hydroxypropylcellulose) (HPC)

## c1ccc2c(SCCCCCCCCCCCCSc3c4ccccc4nc4ccccc34)c3ccccc3nc2c1
dose: 60.0 mg/kg/injection, schedule: Q01DX005 (ip), vehicle: Klucel (hydroxypropylcellulose) (HPC)
  T/C: 104 % of control
dose: 120.0 mg/kg/injection, schedule: Q01DX005 (ip), vehicle: Klucel (hydroxypropylcellulose) (HPC)
  T/C: 98 % of control
dose: 240.0 mg/kg/injection, schedule: Q01DX005 (ip), vehicle: Klucel (hydroxypropylcellulose) (HPC)
  T/C: 90 % of control

## Oc1cc2c3c(c1)c1cc4c(cc1c[n+]3CC2)OCO4
dose: 6.25 mg/kg/injection, schedule: Q01DX009 (ip), vehicle: other
  T/C: 151 % of control
dose: 10.0 mg/kg/injection, schedule: Q01DX005 (ip), vehicle: acid diluted with saline
  T/C: 119 % of control
[1]
  T/C: 155 % of control
dose: 20.0 mg/kg/injection, schedule: Q01DX005 (ip), vehicle: acid diluted with saline
  T/C: 119 % of control
[2]
  T/C: 164 % of control

## O=C(CNc1ccc(Cl)cc1)c1ccc(Cl)cc1
dose: 50.0 mg/kg/injection, schedule: Q01DX005 (ip), vehicle: Klucel (hydroxypropylcellulose) (HPC)
  T/C: 107 % of control
dose: 100.0 mg/kg/injection, schedule: Q01DX005 (ip), vehicle: Klucel (hydroxypropylcellulose) (HPC)
  T/C: 99 % of control
dose: 200.0 mg/kg/injection, schedule: Q01DX005 (ip), vehicle: Klucel (hydroxypropylcellulose) (HPC)
  T/C: 90 % of control

## CCC1=C[C@H]2CN(CCc3c([nH]c4ccccc34)[C@@](C(=O)OC)(c3cc4c(cc3OC)N(C)[C@H]3[C@@](O)(C(=O)NC)[C@H](OC(C)=O)[C@]5(CC)C=CCN6CC[C@]43[C@@H]65)C2)C1
dose: 0.02 mg/kg/injection, schedule: Q01DX009 (ip), vehicle: water
  T/C: 102 % of control
dose: 0.03 mg/kg/injection, schedule: Q01DX009 (ip), vehicle: water
  T/C: 100 % of control
dose: 0.12 mg/kg/injection, schedule: Q04DX003 (ip), vehicle: water
  T/C: 151 % of control
dose: 0.13 mg/kg/injection, schedule: Q01DX009 (ip), vehicle: water
  T/C: 114 % of control and 203 % of control
dose: 0.25 mg/kg/injection, schedule: Q01DX001 (ip), vehicle: water
  T/C: 110 % of control
dose: 0.25 mg/kg/injection, schedule: Q01DX009 (ip), vehicle: water
  T/C: 220 % of control and 192 % of control and 214 % of control
dose: 0.25 mg/kg/injection, schedule: Q04DX003 (ip), vehicle: water
  T/C: 187 % of control
dose: 0.5 mg/kg/injection, schedule: Q01DX001 (ip), vehicle: water
  T/C: 119 % of control
dose: 0.5 mg/kg/injection, schedule: Q04DX003 (ip), vehicle: water
  T/C: 214 % of control
dose: 1.0 mg/kg/injection, schedule: Q01DX009 (ip), vehicle: water
  T/C: 87 % of control
dose: 1.0 mg/kg/injection, schedule: Q04DX003 (ip), vehicle: water
  T/C: 232 % of control
dose: 2.0 mg/kg/injection, schedule: Q01DX001 (ip), vehicle: water
  T/C: 150 % of control
dose: 4.0 mg/kg/injection, schedule: Q01DX001 (ip), vehicle: water
  T/C: 154 % of control
dose: 8.0 mg/kg/injection, schedule: Q01DX001 (ip), vehicle: water
  T/C: 180 % of control

## COc1cc2c(cc1OC)-c1c(O)c(OC)cc3c1C(C2)N(C)CC3 (centres undefined)
dose: 1.12 mg/kg/injection, schedule: Q01DX009 (ip), vehicle: Klucel (hydroxypropylcellulose) (HPC)
  T/C: 100 % of control
dose: 1.25 mg/kg/injection, schedule: Q01DX009 (ip), vehicle: Klucel (hydroxypropylcellulose) (HPC)
  T/C: 103 % of control
dose: 2.25 mg/kg/injection, schedule: Q01DX009 (ip), vehicle: Klucel (hydroxypropylcellulose) (HPC)
  T/C: 100 % of control and 103 % of control
dose: 2.5 mg/kg/injection, schedule: Q01DX009 (ip), vehicle: Klucel (hydroxypropylcellulose) (HPC)
  T/C: 91 % of control
dose: 4.5 mg/kg/injection, schedule: Q01DX009 (ip), vehicle: Klucel (hydroxypropylcellulose) (HPC)
  T/C: 103 % of control
dose: 5.0 mg/kg/injection, schedule: Q01DX009 (ip), vehicle: Klucel (hydroxypropylcellulose) (HPC)
  T/C: 97 % of control
dose: 9.0 mg/kg/injection, schedule: Q01DX009 (ip), vehicle: Klucel (hydroxypropylcellulose) (HPC)
  T/C: 110 % of control and 95 % of control
dose: 10.0 mg/kg/injection, schedule: Q01DX009 (ip), vehicle: Klucel (hydroxypropylcellulose) (HPC)
  T/C: 97 % of control
dose: 18.0 mg/kg/injection, schedule: Q01DX009 (ip), vehicle: Klucel (hydroxypropylcellulose) (HPC)
  T/C: 93 % of control

## CSCCC(NC(=O)CNC(=O)OCc1ccccc1)C(=O)O (centres undefined)
dose: 25.0 mg/kg/injection, schedule: Q01DX009 (ip), vehicle: Klucel (hydroxypropylcellulose) (HPC)
  T/C: 94 % of control
[3]
  T/C: 95 % of control
[4]
  T/C: 100 % of control
[5]
  T/C: 93 % of control
dose: 400.0 mg/kg/injection, schedule: Q01DX009 (ip), vehicle: Klucel (hydroxypropylcellulose) (HPC)
  T/C: 87 % of control

## C=CCn1c(=S)[nH]c2ccccc2c1=O
dose: 100.0 mg/kg/injection, schedule: Q04DX003 (ip), vehicle: saline with Tween-80
  T/C: 90 % of control
dose: 200.0 mg/kg/injection, schedule: Q04DX003 (ip), vehicle: saline with Tween-80
  T/C: 90 % of control
dose: 400.0 mg/kg/injection, schedule: Q04DX003 (ip), vehicle: saline with Tween-80
  T/C: 90 % of control

## Cc1ncc([N+](=O)[O-])n1CCOC(=O)c1ccc(Cl)cc1
[3]
  T/C: 102 % of control
[4]
  T/C: 100 % of control
[5]
  T/C: 98 % of control

## Cc1[c-]onc1C.Cc1[c-]onc1C.[Ag].[Ag].[NH-]S(=O)(=O)c1ccc(N=Nc2cc(N=Nc3ccc(S([NH-])(=O)=O)cc3)c3c(NC(=O)C(Cl)Cl)cccc3c2OC(=O)C(Cl)Cl)cc1
dose: 3.13 mg/kg/injection, schedule: Q01DX009 (ip), vehicle: saline with Tween-80
  T/C: 91 % of control
dose: 6.25 mg/kg/injection, schedule: Q01DX009 (ip), vehicle: saline with Tween-80
  T/C: 89 % of control
dose: 25.0 mg/kg/injection, schedule: Q01DX009 (ip), vehicle: saline with Tween-80
  T/C: 89 % of control
dose: 50.0 mg/kg/injection, schedule: Q01DX009 (ip), vehicle: saline with Tween-80
  T/C: 99 % of control

## CCC[CH2][Sn](=[O])[c]1ccccc1
dose: 12.5 mg/kg/injection, schedule: Q04DX002 (ip), vehicle: saline with Tween-80
  T/C: 100 % of control and 119 % of control
dose: 25.0 mg/kg/injection, schedule: Q04DX002 (ip), vehicle: saline with Tween-80
  T/C: 103 % of control and 106 % of control
dose: 50.0 mg/kg/injection, schedule: Q04DX002 (ip), vehicle: saline with Tween-80
  T/C: 103 % of control and 109 % of control
dose: 100.0 mg/kg/injection, schedule: Q04DX002 (ip), vehicle: saline with Tween-80
  T/C: 103 % of control and 116 % of control

## COc1ccc(N=C(C)C2C(=O)c3ccccc3C2=O)cc1
dose: 50.0 mg/kg/injection, schedule: Q01DX005 (ip), vehicle: DMSO
  T/C: 100 % of control
dose: 50.0 mg/kg/injection, schedule: Q01DX005 (ip), vehicle: saline with Tween-80
  T/C: 113 % of control
dose: 100.0 mg/kg/injection, schedule: Q01DX005 (ip), vehicle: DMSO
  T/C: 102 % of control
dose: 100.0 mg/kg/injection, schedule: Q01DX005 (ip), vehicle: saline with Tween-80
  T/C: 104 % of control
dose: 200.0 mg/kg/injection, schedule: Q01DX005 (ip), vehicle: DMSO
  T/C: 102 % of control
dose: 200.0 mg/kg/injection, schedule: Q01DX005 (ip), vehicle: saline with Tween-80
  T/C: 95 % of control
dose: 400.0 mg/kg/injection, schedule: Q01DX005 (ip), vehicle: DMSO
  T/C: 117 % of control
dose: 800.0 mg/kg/injection, schedule: Q01DX005 (ip), vehicle: DMSO
  T/C: 99 % of control

## COC1OC2COC(c3ccccc3)OC2C(OC(C)=O)C1OC(C)=O (centres undefined)
[1]
  T/C: 98 % of control
[2]
  T/C: 99 % of control
dose: 50.0 mg/kg/injection, schedule: Q01DX009 (ip), vehicle: other
  T/C: 100 % of control
dose: 100.0 mg/kg/injection, schedule: Q01DX009 (ip), vehicle: other
  T/C: 95 % of control
dose: 200.0 mg/kg/injection, schedule: Q01DX009 (ip), vehicle: other
  T/C: 100 % of control

## C=C1C(=O)OC2CC1C(O)C/C(C)=C/CC/C(C)=C/CCC2(C)O (centres undefined)
dose: 2.0 mg/kg/injection, schedule: Q01DX009 (ip), vehicle: Klucel (hydroxypropylcellulose) (HPC)
  T/C: 110 % of control
dose: 4.0 mg/kg/injection, schedule: Q01DX009 (ip), vehicle: Klucel (hydroxypropylcellulose) (HPC)
  T/C: 110 % of control
dose: 8.0 mg/kg/injection, schedule: Q01DX009 (ip), vehicle: Klucel (hydroxypropylcellulose) (HPC)
  T/C: 122 % of control and 92 % of control
dose: 16.0 mg/kg/injection, schedule: Q01DX009 (ip), vehicle: Klucel (hydroxypropylcellulose) (HPC)
  T/C: 105 % of control and 114 % of control
dose: 32.0 mg/kg/injection, schedule: Q01DX009 (ip), vehicle: Klucel (hydroxypropylcellulose) (HPC)
  T/C: 106 % of control and 107 % of control

## CC(=O)OCC1OC(Sc2ccc([N+](=O)[O-])cc2)C(OC(C)=O)C(OC(C)=O)C1OC(C)=O (centres undefined)
dose: 15.0 mg/kg/injection, schedule: Q01DX005 (ip), vehicle: saline with Tween-80
  T/C: 100 % of control
dose: 30.0 mg/kg/injection, schedule: Q01DX005 (ip), vehicle: saline with Tween-80
  T/C: 98 % of control
dose: 60.0 mg/kg/injection, schedule: Q01DX005 (ip), vehicle: saline with Tween-80
  T/C: 91 % of control
